Here are results for three molecules from paper PMC3858179 (Journal of medicinal chemistry, 2008).

For assay [1], the system named is CAKI-1. The settings on record: read-out: GI50 CAKI-1; Renal Cancer; cited from earlier work.
For assay [2], the system named is PC-3. The settings on record: read-out: GI50 PC-3; Prostrate Cancer; cited from earlier work.
Assay [3] deals with SF268. The settings on record: read-out: GI50 SF268; Central Nervous System Cancer; cited from earlier work.
Assay [4] concerns K-562. The note with it: read-out: GI50 K-562; Leukemia; cited from earlier work.
Assay [5] concerns RPMI-8226. The settings on record: read-out: GI50 RPMI-8226; Leukemia; cited from earlier work.
The subject of assay [6] is MOLT-4. The settings on record: read-out: GI50 MOLT-4; Leukemia; cited from earlier work.
Assay [7] has as its system HT29. The note with it: read-out: GI50 HT29; Colon Cancer; cited from earlier work.
Assay [8] deals with 60 tumor cell lines. The settings on record: in 11 of the 60 tumor cell lines evaluated; cited from earlier work.
Assay [9] relates to human CCRF-CEM leukemia cells. The note with it: read-out: EC50 growth of human CCRF-CEM leukemia cells in culture; cited from earlier work.
In assay [10] the test system is U251. The note with it: read-out: GI50 U251; Central Nervous System Cancer; cited from earlier work.
For assay [11], the system named is folyl poly-γ-glutamate synthetase (FPGS). The settings on record: cited from earlier work.
Assay [12] relates to HL-60 × (TB). The settings on record: read-out: GI50 HL-60 × (TB); Leukemia; cited from earlier work.
Assay [13] has as its system NCI-H460. The settings on record: read-out: GI50 NCI-H460; Nonsmall Cell Lung Cancer; cited from earlier work.
Assay [14] relates to MCF-7. The note with it: read-out: GI50 MCF-7; Breast Cancer; cited from earlier work.
Assay [15] concerns SW-620. The note with it: read-out: GI50 SW-620; Colon Cancer; cited from earlier work.
Assay [16] concerns CCRF-CEM. The note with it: read-out: GI50 CCRF-CEM; Leukemia; cited from earlier work.
For assay [17], the system named is HCT 15. The note with it: read-out: GI50 HCT 15; Colon Cancer; cited from earlier work.
Assay [18] deals with ACHN. The note with it: read-out: GI50 ACHN; Renal Cancer; cited from earlier work.
The test system of assay [19] is 60 tumor cell lines. The assay can be described thus: NCI in vitro preclinical antitumor screening, 60 tumor cell lines. In kind it is cell-based.
The target of assay [20] is E. coli TS (Escherichia coli, UniProt P0A884). In words: Inhibition of isolated E. coli TS. The format is biochemical.
Chain of E. coli TS (P0A884 whole entry): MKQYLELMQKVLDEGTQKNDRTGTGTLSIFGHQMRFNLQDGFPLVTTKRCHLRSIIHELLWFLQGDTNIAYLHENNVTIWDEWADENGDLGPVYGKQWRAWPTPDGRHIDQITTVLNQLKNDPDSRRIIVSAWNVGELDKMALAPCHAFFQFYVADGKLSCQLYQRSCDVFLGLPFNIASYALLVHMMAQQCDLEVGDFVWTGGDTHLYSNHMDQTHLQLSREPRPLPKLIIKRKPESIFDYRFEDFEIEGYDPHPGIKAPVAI
The target in assay [21] is E. coli DHFR (Escherichia coli, UniProt P0ABQ4). In words: Inhibition of isolated E. coli DHFR. In kind it is biochemical.
Chain of E. coli DHFR (P0ABQ4 whole entry): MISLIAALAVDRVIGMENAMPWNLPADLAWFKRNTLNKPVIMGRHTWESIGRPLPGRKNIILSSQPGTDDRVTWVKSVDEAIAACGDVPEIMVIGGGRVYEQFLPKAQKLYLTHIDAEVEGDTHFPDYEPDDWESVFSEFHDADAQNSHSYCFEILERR
In assay [22] the target is human TS (Homo sapiens, UniProt P04818). In words: Inhibition of isolated human TS. The format is biochemical.
Chain of human TS (P04818 whole entry): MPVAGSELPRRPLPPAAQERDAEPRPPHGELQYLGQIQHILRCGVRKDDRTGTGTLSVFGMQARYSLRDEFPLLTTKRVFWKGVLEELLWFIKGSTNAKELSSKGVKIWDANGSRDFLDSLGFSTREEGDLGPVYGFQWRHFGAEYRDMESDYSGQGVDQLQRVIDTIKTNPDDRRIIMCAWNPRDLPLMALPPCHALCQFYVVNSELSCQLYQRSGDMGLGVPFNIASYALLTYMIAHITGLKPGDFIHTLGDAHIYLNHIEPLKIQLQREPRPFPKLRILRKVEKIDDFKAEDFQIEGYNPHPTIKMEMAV
Assay [23] deals with T1, T. gondii DHFR (Toxoplasma gondii, UniProt Q07422).
T1 sequence (Q07422 1-610): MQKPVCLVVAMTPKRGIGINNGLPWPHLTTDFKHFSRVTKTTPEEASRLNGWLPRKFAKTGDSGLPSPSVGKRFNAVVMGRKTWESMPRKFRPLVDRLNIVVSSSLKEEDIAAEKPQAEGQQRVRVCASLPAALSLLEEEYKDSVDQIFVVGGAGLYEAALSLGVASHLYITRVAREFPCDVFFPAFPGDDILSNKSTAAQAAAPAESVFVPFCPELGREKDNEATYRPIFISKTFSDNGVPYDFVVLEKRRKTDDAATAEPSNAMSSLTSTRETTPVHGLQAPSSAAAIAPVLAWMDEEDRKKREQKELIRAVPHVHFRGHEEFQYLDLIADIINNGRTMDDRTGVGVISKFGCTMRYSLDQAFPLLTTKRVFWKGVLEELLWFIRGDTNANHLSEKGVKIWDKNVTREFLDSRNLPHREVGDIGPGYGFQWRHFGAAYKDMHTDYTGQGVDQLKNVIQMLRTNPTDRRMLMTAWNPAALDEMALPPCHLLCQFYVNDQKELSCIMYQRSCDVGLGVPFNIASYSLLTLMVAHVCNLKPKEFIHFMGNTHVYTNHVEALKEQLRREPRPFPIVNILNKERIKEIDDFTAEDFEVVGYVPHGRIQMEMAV
The format is biochemical.

In assay [24] the target is T2, human DHFR (Homo sapiens, UniProt P00374).
T2 sequence (P00374 1-187): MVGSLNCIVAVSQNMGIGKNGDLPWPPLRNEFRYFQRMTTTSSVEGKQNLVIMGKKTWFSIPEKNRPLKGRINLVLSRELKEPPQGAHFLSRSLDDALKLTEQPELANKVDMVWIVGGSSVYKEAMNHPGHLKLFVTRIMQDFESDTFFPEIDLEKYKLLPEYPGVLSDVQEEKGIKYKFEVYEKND
The assay can be described thus: Inhibition of isolated human DHFR. In kind it is biochemical.

Assay [25] has as its target T. gondii TS (Toxoplasma gondii, UniProt Q07422). In kind it is biochemical.
Assay [26] concerns the target T1, T. gondii DHFR. The format is biochemical. The note with it: 20 compounds jointly assayed, by both protocols (Table 1 and Table 2 conditions).
For assay [27], the system named is HCT 15. In words: NCI tumor cell growth inhibition, HCT 15. The note with it: Homo sapiens, HCT-15, read-out: GI50 HCT 15. The format is cell-based.
The test system of assay [28] is SW-620. The assay can be described thus: NCI tumor cell growth inhibition, SW-620. In kind it is cell-based. The note with it: Homo sapiens, SW-620, read-out: GI50 SW-620.
Assay [29] deals with RPMI-8226. In words: NCI tumor cell growth inhibition, RPMI-8226. In kind it is cell-based. The note with it: Homo sapiens, RPMI-8226, read-out: GI50 RPMI-8226.
The test system of assay [30] is NCI-H460. In words: NCI tumor cell growth inhibition, NCI-H460. The format is cell-based. The note with it: Homo sapiens, NCI-H460, read-out: GI50 NCI-H460.
Assay [31] concerns CAKI-1. In words: NCI tumor cell growth inhibition, CAKI-1. In kind it is cell-based. The settings on record: Homo sapiens, CAKI-1, read-out: GI50 CAKI-1.
The test system of assay [32] is MOLT-4. In words: NCI tumor cell growth inhibition, MOLT-4. The note with it: Homo sapiens, MOLT-4, read-out: GI50 MOLT-4. In kind it is cell-based.
For assay [33], the system named is ACHN. In words: NCI tumor cell growth inhibition, ACHN. In kind it is cell-based. The note with it: Homo sapiens, read-out: GI50 ACHN.
Assay [34] concerns LOX IMVI. The assay can be described thus: NCI tumor cell growth inhibition, LOX IMVI. The note with it: Homo sapiens, read-out: GI50 LOX IMVI. In kind it is cell-based.
The subject of assay [35] is K-562. The assay can be described thus: NCI tumor cell growth inhibition, K-562. In kind it is cell-based. The note with it: Homo sapiens, K562, read-out: GI50 K-562.
Assay [36] concerns the target M. avium DHFR (Mycobacterium avium, UniProt O30463). In words: Inhibition of isolated M. avium DHFR. The format is biochemical.
For assay [37], the system named is HL-60 × (TB). The assay can be described thus: NCI tumor cell growth inhibition, HL-60 ×. In kind it is cell-based. The settings on record: Homo sapiens, HL-60, read-out: GI50 HL-60 × (TB).
In assay [38] the test system is U251. In words: NCI tumor cell growth inhibition, U251. The note with it: Homo sapiens, U-251, read-out: GI50 U251. The format is cell-based.
In assay [39] the target is rat liver DHFR (Rattus norvegicus, UniProt Q920D2). In words: Inhibition of isolated rat liver DHFR. In kind it is biochemical.
Chain of rat liver DHFR (Q920D2 whole entry): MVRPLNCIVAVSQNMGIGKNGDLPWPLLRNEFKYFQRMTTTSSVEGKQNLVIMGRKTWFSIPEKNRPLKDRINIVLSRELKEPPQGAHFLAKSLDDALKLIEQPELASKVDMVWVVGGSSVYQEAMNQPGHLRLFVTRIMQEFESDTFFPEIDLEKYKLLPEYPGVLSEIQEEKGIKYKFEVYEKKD
For assay [40], the target named is P. carinii DHFR (Pneumocystis carinii, UniProt P16184). In words: biochemical.
Chain of P. carinii DHFR (P16184 whole entry): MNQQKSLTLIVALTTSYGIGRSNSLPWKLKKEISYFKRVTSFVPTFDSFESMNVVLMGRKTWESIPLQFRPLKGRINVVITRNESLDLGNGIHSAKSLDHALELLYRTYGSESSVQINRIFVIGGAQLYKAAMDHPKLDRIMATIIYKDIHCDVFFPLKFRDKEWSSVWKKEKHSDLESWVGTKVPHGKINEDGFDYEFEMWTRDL
In assay [41] the test system is SF268. In words: NCI tumor cell growth inhibition, SF268. The format is cell-based. The settings on record: Homo sapiens, SF-268, read-out: GI50 SF268.
Assay [42] concerns CCRF-CEM. In words: NCI tumor cell growth inhibition, CCRF-CEM. The note with it: Homo sapiens, read-out: GI50 CCRF-CEM. In kind it is cell-based.
In assay [43] the test system is HT29. The assay can be described thus: NCI tumor cell growth inhibition, HT29. The format is cell-based. The note with it: Homo sapiens, HT-29, read-out: GI50 HT29.

Molecules are shown by their SMILES. Where two headings read alike, the source gives them in different places.

Chain of M. avium DHFR (O30463 1-181): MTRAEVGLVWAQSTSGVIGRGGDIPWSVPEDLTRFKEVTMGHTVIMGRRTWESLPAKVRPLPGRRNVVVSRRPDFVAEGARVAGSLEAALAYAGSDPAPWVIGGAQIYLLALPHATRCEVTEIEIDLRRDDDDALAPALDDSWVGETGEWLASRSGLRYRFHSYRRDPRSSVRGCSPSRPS

As a reminder, the GI50 is the concentration that inhibits growth by half. As a reminder, the EC50 is the concentration needed to bring the measured effect to its halfway point. With `Cc1c(Sc2ccc(C(=O)N[C@@H](CCC(=O)O)C(=O)O)cc2)[nH]c2nc(N)nc(N)c12` [Compound 1], the GI50 is above 100 µM in assay [1]; 0.0436 µM in assay [2]; 74.7 µM in assay [3]; 0.0295 µM in assay [4]; below 0.01 µM in [5]; below 0.01 µM in assay [6]. The GI50 in assay [7] is 0.16 µM; in assay [8] it was at most 0.1 µM; in assay [10], 0.824 µM; in assay [12] it was 0.0435 µM; in assay [13] it was 0.631 µM; in [14], above 100 µM. The GI50 in [15] was 0.124 µM; in [16], 0.221 µM; in assay [17], 59.5 µM; in assay [18], 24.2 µM. The EC50 in assay [9] is 0.19 µM. For the same molecule, the FPGS substrate activity entry in assay [11] was “reasonable”.
In the case of `CCCc1c(Sc2ccc(C(=O)N[C@@H](CCC(=O)O)C(=O)O)cc2)[nH]c2nc(N)nc(N)c12` [Compound 3, N-[4-[(2,4-Diamino-5-propyl-7H-pyrrolo[2,3-d]pyrimidin-6-yl)sulfanyl]benzoyl]-L-glutamic Acid], the GI50 in [19] was below 1 µM; in assay [19] (read-out: GI50 tumor cells in culture), at most 0.1 µM; in assay [27], above 100 µM; in [28] it was 1.21 µM. Besides, in [20], the “inhibition of E. coli TS, in words” value is on record as “poor inhibitor”. The “inhibition of E. coli DHFR, in words” value in assay [21] is “good inhibitor”. In addition, the “inhibition of hTS, in words” value in [22] is reported as “poor inhibitor”. Also, in assay [23], the “inhibition of T. gondii DHFR, in words” value is reported as “good inhibitor”. Moreover, the “inhibition of hDHFR, in words” value in assay [24] is “good inhibitor”. Besides, the “inhibition of T. gondii TS, in words” value in [25] was “moderate inhibition”. In addition, the “potency rank against T. gondii DHFR, in words” value in assay [26] is “three most potent compounds”.
As a reminder, the IC50 is the concentration needed to halve the response being measured. A higher IC50 goes with weaker potency. As to `CC(C)c1c(Sc2ccc(C(=O)N[C@@H](CCC(=O)O)C(=O)O)cc2)[nH]c2nc(N)nc(N)c12` [Compound 4, N-[4-[(2,4-Diamino-5-isopropyl-7H-pyrrolo[2,3-d]pyrimidin-6-yl)sulfanyl]-benzoyl]-L-glutamate], the concentration for 50% growth inhibition (GI50) in [19] was below 1 µM; in [29], 7.74 µM; in assay [30], 6.45 µM; in [31] it was 4.25 µM; in assay [32], 1.31 µM; in [33] it was 7.39 µM. In addition, the GI50 in assay [34] was found to be 1.14 µM; in [35], 0.932 µM; in assay [37], 5.65 µM; in assay [38], 7.24 µM; in assay [27], 34.8 µM; in [41], 17.8 µM. The values for the GI50 in [42], in assay [43] and in assay [28] were 0.536 µM, 5.76 µM and 4.71 µM, respectively. For the same molecule, the “fold less inhibitory than pemetrexed against hTS” value in assay [22] came to 4 fold. Further, in assay [22], the “fold less potent than 1 as inhibitor of hTS” value is reported as 63-74 fold. Also, the IC50 in [36] was 0.000391 µM; in assay [24], 0.09 µM; in [39], 0.186 µM; in assay [40], 0.0048 µM. In addition, in assay [36] (IC50 rat liver DHFR/IC50 M. avium DHFR), the Selectivity ratio rl/ma amounted to 475.7. Also, in [24], the “fold less potent as hDHFR inhibitor compared with MTX” value was around 4 fold. In addition, in assay [24], the “fold more potent than pemetrexed as hDHFR inhibitor” value was around 17 fold. For the same molecule, the “inhibition of hDHFR, in words” value in assay [24] is on record as “good inhibitors”. For the same molecule, the “potency rank against T. gondii DHFR, in words” value in [26] was “three most potent compounds”. Moreover, the Selectivity ratio rl/pc in assay [40] (IC50 rat liver DHFR/IC50 P. carinii DHFR) worked out at 38.8.
